This is an account of results in patent US9404927B2, “Systems and methods for diagnosing and treating cancer” (The Translational Genomics Research Institute, priority 2013, dated 2016).

Assay [1] relates to HGF-induced Fn14 expression in H2073 cells. Description: Immunoblot of HGF-induced Fn14 expression in serum starved H2073 cells. It counts as cell-based, human. The settings on record: for HGF-induced Fn14 expression: inhibitor 10 μM pre-treated 30 minutes, then HGF (20 ng) three hours. The protocol: FIGS. 5A and 5B illustrate that inhibition of MEK or ERK abrogates HGF-induced expression of Fn14. (FIG. 5A) Serum starved H2073 cells pre-treated with either vehicle, U0126, or LY294002 for 30 minutes were exposed to HGF (20 ng) for three hours. Cells were harvested, total cell lysates were prepared and immunoblotted with antibodies to Fn14. Tubulin was used as a loading control. (FIG. 5B) H1993 cells were treated with either vehicle or U0126 for three hours Immunoblots for phosphorylated ERK1/2 (pERK1/2) and Fn14 were performed with tubulin used as a loading control.
Human NSCLC cell lines H2073 and H1993 (American Type Culture Collection, Manassas, Va.) and mouse cell lines CMT64 and CMT167 (Sigma-Aldrich, St. Louis, Mo.) were maintained in RPMI 1640 (Invitrogen, Carlsbad, Calif.) and DMEM (Invitrogen), respectively, supplemented with 10% heat-inactivated fetal bovine serum (FBS) in a 37° C., 5% CO2 atmosphere. For the HGF stimulation, cells were placed in RPMI 1640 without FBS for 18 hours prior to growth factor exposure.
HGF was purchased from Millipore (Billerica, Mass.). SU11274 and U0126 were purchased from Selleck Chemicals (Houston, Tex.). LY294002 was purchased from Tocris Biosciences (R&D Systems, Minneapolis, Minn.). The final concentrations of inhibitors were SU11274 (2 μM), U0126 (10 μM), and LY294002 (10 μM). Antibodies for immunblot analysis against Fn14, c-Met, and phosphorylated c-Met were purchased from Cell Signaling Technology (Danvers, Mass.), while alpha-tubulin was purchased from Millipore. Immunoblot analysis was performed as previously described (Whitsett T G, et al. (2012) Elevated expression of Fn14 in non-small cell lung cancer correlates with activated EGFR and promotes tumor cell migration and invasion. Am J Pathol 181 1): 111-20).
(In general: In western blotting, separated proteins are transferred to a membrane and probed.)

Assay [2] relates to Fn14 protein expression in H1993 cells. The assay can be described thus: Immunoblot of Fn14 in H1993 cells treated with inhibitors. In kind it is cell-based, human. The settings on record: immunoblot vs vehicle. Here is the method:
FIGS. 4A-4C illustrate that c-Met amplification enhances Fn14 expression levels in NSCLC cell lines. (FIG. 4A) Total cell lysates were prepared from CMT64 and CMT167 cell lines and immunoblotted with the indicated antibodies. Tubulin was used as a loading control. (FIG. 4B) Total cell lysates were prepared from H2073 (primary adenocarcinoma NSCLC cell line) and H1993 (patient-matched metastatic cell line with known c-Met amplification) and immunoblotted with the indicated antibodies. Tubulin was used as a loading control. (FIG. 4C) H1993 cells were treated with vehicle or SU11274 for 24 hr. Cells were harvested, total cell lysates were prepared and immunoblotted with an antibody against Fn14. Tubulin was used as a loading control. FIGS. 5A and 5B illustrate that inhibition of MEK or ERK abrogates HGF-induced expression of Fn14. […] Cells were harvested, total cell lysates were prepared and immunoblotted with antibodies to Fn14. Tubulin was used as a loading control. […] Human NSCLC cell lines H2073 and H1993 (American Type Culture Collection, Manassas, Va.) and mouse cell lines CMT64 and CMT167 (Sigma-Aldrich, St. Louis, Mo.) were maintained in RPMI 1640 (Invitrogen, Carlsbad, Calif.) and DMEM (Invitrogen), respectively, supplemented with 10% heat-inactivated fetal bovine serum (FBS) in a 37° C., 5% CO2 atmosphere. […]

As for `O=c1cc(N2CCOCC2)oc2c(-c3ccccc3)cccc12` [LY294002], the “HGF-induced Fn14 expression” value in assay [1] was “no effect”. Regarding `Cc1[nH]c(/C=C2\C(=O)Nc3ccc(S(=O)(=O)N(C)c4cccc(Cl)c4)cc32)c(C)c1C(=O)N1CCN(C)CC1` [SU11274], the Fn14 protein expression entry in assay [2] (SU11274 2 μM, 24 hr) is listed as “inhibition of the Fn14 protein expression”.

`N#CC(=C(/N)Sc1ccccc1N)/C(C#N)=C(\N)Sc1ccccc1N` [U0126]: the Fn14 protein expression entry in assay [2] (U0126 10 μM, three hours) is listed as “significantly decreased”. Further, the “HGF-induced Fn14 expression” value in assay [1] is recorded as “completely abrogated”.

On to “HGF: hepatocyte growth factor, cognate ligand of c-Met, purchased from Millipore”, for which the “protein expression of Fn14 on exposure to HGF” value in assay [1] (HGF (20 ng), three hours) is “enhanced”.
